The text below walks through data of US7420056B2, “Substituted bicyclic imidazo-3-ylamine compounds” (Gruenenthal GmbH, priority 2004, dated 2008).

Counter-ions that a name gives are not always drawn.

The first experiment deals with mGluR5 receptor (Sus scrofa, UniProt I3LUI7). Briefly: Affinity for the mGluR5 receptor: inhibition of 3[H]-MPEP binding in pig brain homogenate. To be noted: 10 μM compound, 5 nM 3[H]-MPEP, read-out: mGluR5 receptor inhibition of ^3[H]-MPEP binding [10 μM] in % at a concentration of the example compounds of 10 μM. Put shortly: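 Test compounds were screened at 10 μM for displacement of 5 nM [3H]-MPEP from pig brain homogenate (450 μg protein, pH 8.0 Hepes buffer) over 60 min at room temperature. After filtration, scintillation counting gave the read-out. 10 μM unlabelled MPEP set nonspecific binding.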
Sequence of mGluR5 receptor (I3LUI7 19-1212): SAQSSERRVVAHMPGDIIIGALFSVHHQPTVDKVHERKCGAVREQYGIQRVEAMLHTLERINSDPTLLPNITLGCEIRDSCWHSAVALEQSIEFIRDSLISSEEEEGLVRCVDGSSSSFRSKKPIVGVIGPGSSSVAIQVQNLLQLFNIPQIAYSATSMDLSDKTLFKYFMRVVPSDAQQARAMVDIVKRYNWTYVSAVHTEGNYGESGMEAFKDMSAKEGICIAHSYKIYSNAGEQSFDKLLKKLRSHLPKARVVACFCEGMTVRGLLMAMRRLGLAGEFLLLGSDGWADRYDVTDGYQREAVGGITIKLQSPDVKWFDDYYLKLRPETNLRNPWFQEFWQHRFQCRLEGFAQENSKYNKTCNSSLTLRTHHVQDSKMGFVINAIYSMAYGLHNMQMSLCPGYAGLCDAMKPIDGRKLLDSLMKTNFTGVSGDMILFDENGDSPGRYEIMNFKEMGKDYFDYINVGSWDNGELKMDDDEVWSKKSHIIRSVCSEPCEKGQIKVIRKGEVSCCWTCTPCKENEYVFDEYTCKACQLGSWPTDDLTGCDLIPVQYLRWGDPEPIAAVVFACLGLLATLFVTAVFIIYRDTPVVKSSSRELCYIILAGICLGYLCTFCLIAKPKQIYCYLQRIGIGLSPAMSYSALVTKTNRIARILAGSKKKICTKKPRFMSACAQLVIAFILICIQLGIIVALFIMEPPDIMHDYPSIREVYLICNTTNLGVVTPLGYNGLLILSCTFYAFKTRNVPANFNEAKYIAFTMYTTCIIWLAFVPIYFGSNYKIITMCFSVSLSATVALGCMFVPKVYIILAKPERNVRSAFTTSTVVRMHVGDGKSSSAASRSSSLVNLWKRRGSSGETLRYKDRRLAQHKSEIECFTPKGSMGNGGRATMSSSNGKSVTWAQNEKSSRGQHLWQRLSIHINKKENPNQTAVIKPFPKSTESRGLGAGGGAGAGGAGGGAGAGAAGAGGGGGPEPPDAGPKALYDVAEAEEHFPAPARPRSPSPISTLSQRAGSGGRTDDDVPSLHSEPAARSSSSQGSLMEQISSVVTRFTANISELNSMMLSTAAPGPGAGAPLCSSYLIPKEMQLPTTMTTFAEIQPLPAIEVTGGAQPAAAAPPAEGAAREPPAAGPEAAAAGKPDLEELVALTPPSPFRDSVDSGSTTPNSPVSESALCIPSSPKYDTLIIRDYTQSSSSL
As for `CC(C)(C)Nc1c(-c2ccc(C#Cc3ccccn3)o2)nc2ncccn12` [Example 258, N-tert-butyl-2-(5-(pyridin-2-ylethynyl)furan-2-yl)imidazo[1,2-a]pyrimidin-3-amine], the inhibition at 10 µM was determined as 86%.
As to `COc1cccc(CNc2c(-c3ccc(C#Cc4ccccc4)s3)nc3c(OCc4ccccc4)cccn23)c1` [Example 24, [8-benzyloxy-2-(5-phenylethynyl-thiophen-2-yl)-imidazo[1,2-a]pyridin-3-yl]-(3-methoxy-benzyl)-amine], the inhibition at 10 µM was found to be 94%.
Same read-out and setting: to `CC(C)(C)Nc1c(-c2ccc(C#Cc3ccccn3)cc2)nc2ccc(Cl)cn12` [Example 314, N-tert-butyl-6-chloro-2-(4-(pyridin-2-ylethynyl)phenyl)imidazo[1,2-a]pyridin-3-amine] belongs 79%.
As for `Clc1ccc2nc(-c3ccc(C#Cc4ccccn4)o3)c(NC3CCCCC3)n2c1` [Example 317, 6-chloro-N-cyclohexyl-2-(5-(pyridin-2-ylethynyl)furan-2-yl)imidazo[1,2-a]pyridin-3-amine], the inhibition at 10 µM turned out to be 58%.
Consider `CCCCNc1c(-c2cc(C#Cc3ccccc3)cs2)nc2cnccn12` [Example 57, butyl-[2-(4-phenylethynyl-thiophen-2-yl)-imidazo[1,2-a]pyrazin-3-yl]-amine], for which the inhibition at 10 µM was 94%.
Still for that read-out and setting: to `Cc1cc(C)n2c(Nc3cccc(C(F)(F)F)c3)c(-c3cc(C#Cc4ccccc4)cs3)nc2n1` [Example 226, 5,7-dimethyl-2-(4-(phenylethynyl)thiophen-2-yl)-N-(3-(trifluoromethyl)phenyl)imidazo[1,2-a]pyrimidin-3-amine] belongs 41%; to `Cc1cccn2c(NC3CCCCC3)c(-c3ccc(C#Cc4ccccn4)cc3)nc12` [Example 297, N-cyclohexyl-8-methyl-2-(4-(pyridin-2-ylethynyl)phenyl)imidazo[1,2-a]pyridin-3-amine], 80%.
Still for that read-out and setting: to `CC(C)(C)Nc1c(-c2ccc(C#Cc3cc(F)cc(F)c3)s2)nc2ccccn12` [Example 349, N-tert-butyl-2-(5-((3,5-difluorophenyl)ethynyl)thiophen-2-yl)imidazo[1,2-a]pyridin-3-amine] belongs 39%; to `CC(C)(C)CC(C)(C)Nc1c(-c2cccc(C#Cc3ccccn3)c2)nc2cnccn12` [Example 239, 2-(3-(pyridin-2-ylethynyl)phenyl)-N-(2,4,4-trimethylpentan-2-yl)imidazo[1,2-a]pyrazin-3-amine], 60%.
Still for that read-out and setting: the same measure for `COc1cccc(CCNc2c(-c3cc(C#Cc4ccccc4)cs3)nc3nc(C)cc(C)n23)c1` [Example 196, N-(3-methoxyphenethyl)-5,7-dimethyl-2-(4-(phenylethynyl)thiophen-2-yl)imidazo[1,2-a]pyrimidin-3-amine]: 68%; for `COc1cccc(CCNc2c(-c3cc(C#Cc4ccccc4)cs3)nc3nc(C)ccn23)c1` [Example 217, N-(3-methoxyphenethyl)-7-methyl-2-(4-(phenylethynyl)thiophen-2-yl)imidazo[1,2-a]pyrimidin-3-amine]: 62%.
For `CC(Nc1c(-c2ccc(C#Cc3ccccc3)s2)nc2c(OCc3ccccc3)cccn12)c1ccccc1` (centres unmarked) [Example 30, [8-benzyloxy-2-(5-phenylethynyl-thiophen-2-yl)-imidazo[1,2-a]pyridin-3-yl]-(1-phenyl-ethyl)-amine], the inhibition at 10 µM came out at 73%.
Same read-out and setting: the same measure for `C(#Cc1ccc(-c2nc3cnccn3c2NC2CCCCC2)o1)c1ccccn1` [Example 247, N-cyclohexyl-2-(5-(pyridin-2-ylethynyl)furan-2-yl)imidazo[1,2-a]pyrazin-3-amine]: 83%; for `Cc1cccc(C#Cc2cccc(-c3nc4ccccn4c3NC(C)(C)CC(C)(C)C)c2)n1` [Example 289, 2-(3-((6-methylpyridin-2-yl)ethynyl)phenyl)-N-(2,4,4-trimethylpentan-2-yl)imidazo[1,2-a]pyridin-3-amine]: 51%.

The experiment is the same for the next values; noted with them: 3[H]-MPEP binding.
For the compound `COC(=O)c1nccn2c(NC(C)(C)CC(C)(C)C)c(-c3ccc(C#Cc4ccccc4)s3)nc12` [Example 84, methyl-2-(5-(phenylethynyl)thiophen-2-yl)-3-(2,4,4-trimethylpentan-2-ylamino)imidazo[1,2-a]pyrazine-8-carboxylate], the half-inhibitory concentration (IC50) came out at 1320 nM.
Still for that read-out and setting: the same measure for `CC(C)(C)Nc1c(-c2ccc(C#Cc3ccc(F)cn3)s2)nc2cnccn12` [Example 169, N-tert-butyl-2-(5-((5-fluoropyridin-2-yl)ethynyl)thiophen-2-yl)imidazo[1,2-a]pyrazin-3-amine hydrochloride]: 11 nM.
On the same count and under the same terms, the same measure for `CC(C)(C)Nc1c(-c2ccc(C#Cc3cccc(C(F)(F)F)c3)s2)nc2cnccn12` [Example 180, N-tert-butyl-2-(5-((3-(trifluoromethyl)phenyl)ethynyl)thiophen-2-yl)imidazo[1,2-a]pyrazin-3-amine hydrochloride]: 580 nM.
Same read-out and setting: to `CC(C)(C)Nc1c(-c2ccc(C#Cc3cccc(C#N)c3)s2)nc2cnccn12` [Example 140, 3-((5-(3-(tert-butylamino)imidazo[1,2-a]pyrazin-2-yl)thiophen-2-yl)ethynyl)benzonitrile hydrochloride] belongs 26 nM.
Compound `CC(C)(C)Nc1c(-c2ccc(C#Cc3cccc([N+](=O)[O-])c3)s2)nc2cnccn12` [Example 150, N-tert-butyl-2-(5-((3-nitrophenyl)ethynyl)thiophen-2-yl)imidazo[1,2-a]pyrazin-3-amine hydrochloride] showed a 50% inhibitory concentration (IC50) of 110 nM.
For the compound `CN(c1c(-c2ccc(C#Cc3ccccc3)s2)nc2cnccn12)C(C)(C)CC(C)(C)C` [Example 98, N-methyl-2-(5-(phenylethynyl)thiophen-2-yl)-N-(2,4,4-trimethylpentan-2-yl)imidazo[1,2-a]pyrazin-3-amine hydrochloride], the half-inhibitory concentration (IC50) came to 250 nM.
Still for that read-out and setting: the same measure for `CC(C)(C)Nc1c(-c2ccc(C#Cc3cccc(F)c3)s2)nc2cnccn12` [Example 104, N-tert-butyl-2-(5-((3-fluorophenyl)ethynyl)thiophen-2-yl)imidazo[1,2-a]pyrazin-3-amine hydrochloride]: 92 nM; for `CC(=O)Nc1c(-c2ccc(C#Cc3ccccc3)s2)nc2cnccn12` [Example 67, N-[2-(5-phenylethynyl-thiophen-2-yl)-imidazo[1,2-a]pyrazin-3-yl]-acetamide]: 3840 nM.
On the same count and under the same terms, to `CN(C)c1cccc(C#Cc2ccc(-c3nc4cnccn4c3NC(C)(C)C)s2)c1` [Example 157, N-tert-butyl-2-(5-((3-(dimethylamino)phenyl)ethynyl)thiophen-2-yl)imidazo[1,2-a]pyrazin-3-amine hydrochloride] belongs 1550 nM; to `CC(C)(C)Nc1c(-c2ccc(C#Cc3nccs3)s2)nc2cnccn12` [Example 133, N-tert-butyl-2-(5-(thiazol-2-ylethynyl)thiophen-2-yl)imidazo[1,2-a]pyrazin-3-amine], 15 nM.
The same measure, in the same setting: the same measure for `CC(C)(C)Nc1c(-c2ccc(C#Cc3ccccc3)nc2)nc2cnccn12` [Example 126, N-tert-butyl-2-(6-(phenylethynyl)pyridin-3-yl)imidazo[1,2-a]pyrazin-3-amine]: 3250 nM; for `COc1ccc(C#Cc2ccc(-c3nc4cnccn4c3NC(C)(C)C)s2)cc1` [Example 114, N-tert-butyl-2-(5-((4-methoxyphenyl)ethynyl)thiophen-2-yl)imidazo[1,2-a]pyrazin-3-amine hydrochloride]: 2110 nM.
